Source: patent US7601674B2, “α-oxygenated or α-thiolated carboxylic acid phenethylamide derivatives” (priority 2001, dated 2009)

Columns and labels:
Type in all cases: in vivo
Plasmopara viticola [1] = test: D-1a Action against Plasmopara viticola on vines, residual-protective action; conditions: vine seedlings, test D-1a residual-protective, untreated plants attack 80-100%, read-out: inhibition of fungal infestation
Procedure: (§1) D-1: Action Against Plasmopara viticola on Vines
(§2) a) Residual-protective Action
Vine seedlings are sprayed at the 4- to 5-leaf stage with a spray mixture (0.02% active ingredient) prepared from a wettable powder formulation of the test compound. After 24 hours, the treated plants are infected with a sporangia suspension of the fungus. Fungus infestation is evaluated after incubation for 6 days at 95-100% relative humidity and +20° C.

Plasmopara viticola [2] = test: D-1b Action against Plasmopara viticola on vines, residual-curative action; conditions: vine seedlings, test D-1b residual-curative, untreated plants attack 80-100%, read-out: inhibition of fungal infestation
Procedure: as §1
b) Residual-curative Action
Vine seedlings are infected at the 4- to 5-leaf stage with a sporangia suspension of the fungus. After incubation for 24 hours in a humidity chamber at 95-100% relative humidity and […], the infected plants are dried and sprayed with a spray mixture (0.02% active ingredient) prepared from a wettable powder formulation of the test compound. After the spray coating has dried, the treated plants are placed in the humidity chamber again. Fungus infestation is evaluated 6 days after infection.

Phytophthora [3] = test: D-2a Action against Phytophthora on tomato plants, residual-protective action; conditions: test D-2a residual-protective, untreated plants attack 80-100%, read-out: inhibition of fungal infestation
Procedure: (§3) D-2: Action Against Phytophthora on Tomato Plants
as §2
(§4) After a cultivation period of 3 weeks, tomato plants are sprayed with a spray mixture (0.02% active ingredient) prepared from a wettable powder formulation of the test compound. After 48 hours, the treated plants are infected with a sporangia suspension of the fungus. Fungus infestation is evaluated after incubation of the infected plants for 5 days at 90-100% relative humidity and +20° C.

Phytophthora [4] = test: D-2b Action against Phytophthora on tomato plants, systemic action; conditions: test D-2b systemic (soil drench), untreated plants attack 80-100%, read-out: inhibition of fungal infestation
Procedure: as §3
as §4, with “watered” for “sprayed”, “ingredient based on the volume of the soil)” for “ingredient)”, “compound. […]” for “compound.”, “96” for “48”, “4” for “5”

Phytophthora [5] = test: D-3a Action against Phytophthora on potato plants, residual-protective action; conditions: potato plants (Bintje), test D-3a residual-protective, untreated plants attack 80-100%, read-out: inhibition of fungal infestation
Procedure: (§5) D-3: Action Against Phytophthora on Potato Plants
as §2
(§6) 2-3 week old potato plants (Bintje variety) are sprayed with a spray mixture (0.02% active ingredient) prepared from a wettable powder formulation of the test compound. After 48 hours, the treated plants are infected with a sporangia suspension of the fungus. Fungus infestation is evaluated after incubation of the infected plants for 4 days at 90-100% relative humidity and +20° C.

Phytophthora [6] = test: D-3b Action against Phytophthora on potato plants, systemic action; conditions: potato plants (Bintje), test D-3b systemic (soil drench), untreated plants attack 80-100%, read-out: inhibition of fungal infestation
Procedure: as §5
as §6, with “watered” for “sprayed”, “ingredient based on the volume of the soil)” for “ingredient)”, “compound. […]” for “compound.”, “C. Fungal infestation is effectively controlled with compounds of Tables 1 to 64.” for “C.”

Measured: inhibition at 200 ppm

C#CCOc1ccc(CCNC(=O)C(COc2ccc(Cl)cc2)OCC#C)cc1OC (stereo not shown) [Compound E1.26]
80 to 100%: all assays above

C#CCOc1ccc(CCNC(=O)C(O)COc2ccc(Cl)cc2)cc1OC (stereo not shown) [Compound E1.24, 3-(4-Chloro-phenoxy)-2-hydroxy-N-[2-(3-methoxy-4-prop-2-ynyloxy-phenyl)-ethyl]-propionamide]
80 to 100%: Plasmopara viticola [1] | Plasmopara viticola [2] | Phytophthora [3] | Phytophthora [4]
